According to US5223486A, “Inhibition of cancer procoagulant” (University Research Corporation, priority 1991, dated 1993):
Where two headings read alike, the source gives them in different places. Where a SMILES comes first, the peptide text is derived from it. [ ]: non-standard residue; d: D form. The star is where a group is joined. ξ: configuration not given here. ξF = NC(Cc1ccccc1)C(=O)O; Cbz = O=C(OCc1ccccc1)*; ξV = CC(C)C(N)C(=O)O; CHN2 = [N-]=[N+]=C*; ξP = O=C(O)C1CCCN1; tBu = CC(C)(C)*

What was measured:
[1] = test system: RVV (Russell's viper venom); test: one-stage plasma recalcification clotting time assay, RVV control procoagulant; format: biochemical; conditions: 30 min at 25° C.; for effect on activity of RVV: 400 μM peptidyl sulfonium salt; for percent inhibition of RVV (negative = slight activation): 200 μM peptidyl diazomethyl ketone
Procedure: (§1) If the volume of the sample was too small, 0.05 ml of the sample was used with proportional reduction in the volume of the other reagents. […] These dilutions of RVV were used to calibrate the assay plasma and to verify linearity of the clotting times over the range of procoagulant activity.
(§2) The procoagulant activity of the samples was expressed as clotting time in seconds or as the percent activity, calculated as the percent reduction of clotting time (CT) from the corresponding buffer blank [(blank time (sec)-sample clotting time (sec))/ blank time (sec)]×100. The percent inhibition of the control and experimental procoagulants by the peptidyl diazomethyl ketone and peptidyl sulfonium salt inhibitors was expressed as the percent increase in the clotting time compared with the uninhibited sample [(inhibited CT-uninhibited CT)/uninhibited CT]×100.
(§3) Papain, a factor X activator and cysteine proteinase standard, RVV (Russell's viper venom) and rabbit brain thromboplastin, a tissue factor (TF) standard, were purchased from Sigma Chemical Co. (St. Louis, MO). To determine the effect of the peptidyl diazomethyl ketone and peptidyl sulfonium salt inhibitors on CP, the control procoagulants (Papain, RVV and TF), and the assay plasma system, the procoagulant activity of the samples and controls was analyzed with and without the addition of different concentrations of the inhibitors. […] Peptidyl diazomethyl ketone inhibitors were incubated with the procoagulant samples at a final concentration of 400 μM, 200 μM, 100 μM, 10 μM and 1 μM. Peptidyl sulfonium salt inhibitors were incubated with the samples at a final concentration of 800 μM, as well as the same concentrations as the diazomethyl ketones. At the end of the inhibition incubation, each sample was analyzed in the coagulation assay.

[2] = target: T1, rabbit brain thromboplastin, a tissue factor (TF) standard (Oryctolagus cuniculus, UniProt P24055); test: one-stage plasma recalcification clotting time assay, TF control procoagulant; format: biochemical; conditions: 30 min at 25° C.; for enhancement of TF activity (negative inhibition): 400 μM peptidyl sulfonium salt; for inhibition of TF: 200 μM peptidyl diazomethyl ketone
T1 construct: rabbit brain thromboplastin, a tissue factor (TF) standard; purchased Sigma Chemical Co. (St. Louis, MO); host or cells: rabbit brain
T1 sequence (P24055 33-292): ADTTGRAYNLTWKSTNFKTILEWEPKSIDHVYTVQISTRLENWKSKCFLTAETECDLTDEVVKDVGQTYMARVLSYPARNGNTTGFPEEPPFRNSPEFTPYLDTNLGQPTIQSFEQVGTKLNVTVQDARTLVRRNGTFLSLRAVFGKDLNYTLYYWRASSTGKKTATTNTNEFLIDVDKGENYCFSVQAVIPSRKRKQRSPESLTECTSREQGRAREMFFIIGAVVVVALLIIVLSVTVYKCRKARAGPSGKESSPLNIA
Procedure: The procoagulant activity of the samples and the controls was measured in a one-stage plasma recalcification clotting time assay using a model 202A clot timer (Heller Laboratories, Santa Rose, CA). […] If the volume of the sample was too small, 0.05 ml of the sample was used with proportional reduction in the volume of the other reagents. […] These dilutions of RVV were used to calibrate the assay plasma and to verify linearity of the clotting times over the range of procoagulant activity.
as §2, §3
Each CP or control sample was adjusted to a concentration such that the procoagulant activity reduced the clotting time of the blank assay plasma from 10% to 30%, within the linear range of the assay (Gordon et al. (1979) J. Natl. Cancer Inst. 62:773-776).

cancer procoagulant (CP) [3] = test: one-stage plasma recalcification clotting time assay, inhibition of CP procoagulant activity; format: biochemical, rabbit; conditions: for percent inhibition of CP: 30 min at 25° C.
papain = target: T2, papain (Carica papaya, UniProt P00784); format: biochemical; conditions: 30 min at 25° C.
T2 construct: purchased Sigma Chemical Co. (St. Louis, MO)
T2 sequence (P00784 134-345): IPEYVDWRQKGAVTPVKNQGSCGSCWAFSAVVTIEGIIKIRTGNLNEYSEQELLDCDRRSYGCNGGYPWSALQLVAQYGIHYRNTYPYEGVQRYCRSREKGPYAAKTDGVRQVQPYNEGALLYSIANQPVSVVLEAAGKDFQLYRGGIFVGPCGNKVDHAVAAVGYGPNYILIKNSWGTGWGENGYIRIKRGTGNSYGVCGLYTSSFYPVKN
Procedure: as §1, §2, §3

cathepsin L [4] = target: cathepsin L (Homo sapiens, UniProt P07711); conditions: cited from earlier work
[5] = test system: control procoagulants (TF, RVV and Papain); test: effect on the coagulation controls and the assay plasma; format: biochemical; conditions: compared with D1-D3 results of FIG. 1
Procedure: The procoagulant activity of the samples and the controls was measured in a one-stage plasma recalcification clotting time assay using a model 202A clot timer (Heller Laboratories, Santa Rose, CA). […]. If the volume of the sample was too small, 0.05 ml of the sample was used with proportional reduction in the volume of the other reagents. […]. These dilutions of RVV were used to calibrate the assay plasma and to verify linearity of the clotting times over the range of procoagulant activity.
as §2
Papain, a factor X activator and cysteine proteinase standard, RVV (Russell's viper venom) and rabbit brain thromboplastin, a tissue factor (TF) standard, were purchased from Sigma Chemical Co. (St. Louis, MO). To determine the effect of the peptidyl diazomethyl ketone and peptidyl sulfonium salt inhibitors on CP, the control procoagulants (Papain, RVV and TF), and the assay plasma system, the procoagulant activity of the samples and controls was analyzed with and without the addition of different concentrations of the inhibitors. […]; there was no effect of these solvents on the assay plasma activity. Preliminary experiments evaluated the time (15, 30 and 50 min) and temperature (25° C. and 37° C.) of the inhibition reaction; 30 min at 25° C. was selected as the optimum conditions and was used for the subsequent studies. […] At the end of the inhibition incubation, each sample was analyzed in the coagulation assay. […]

cancer procoagulant (CP) [6] = format: biochemical, human
Procedure: Fresh human placenta was obtained from the delivery deck, the amnion-chorion membranes were removed from the placental tissue and extracted in 3 to 4 changes of 20 mM veronal buffer (pH 7.4) as described in Gordon et al. (1985) Blood 66:1261-1265. The extracts were purified over an anti-Cp antibody affinity column. The purified CP sample was assayed for procoagulant activity by measuring clotting time of normal and factor VII deficient citrated plasma. […] To assure that there was no tissue factor-factor VIIa activity in the preparation, 5 μl (1.3 mg/ml) of rabbit polyclonal anti-tissue factor antibody was added to the sample and incubated for 30 min. at 25° C.

isolated rat hepatocytes = conditions: 10^-5 M; cited from earlier work
cathepsin L [7] = conditions: cathepsin B from rat and human; substrate Z-Phe-Arg-4-methyl-7-coumarylamide; cited from earlier work
clostripain = clostripain (Hathewaya histolytica, UniProt P09870); conditions: cited from earlier work
[8] = test system: nonsmall cell lung cancer; conditions: patients with nonsmall cell lung cancer limited to one hemithorax; cited from earlier work
cathepsin B = cathepsin B (Homo sapiens, UniProt P07858); conditions: cited from earlier work
[9] = test system: small cell carcinoma of the lung; conditions: patients with small cell carcinoma of the lung; cited from earlier work

cathepsin L (Homo sapiens, UniProt P07711), sequence (P07711 114-333, species assumed): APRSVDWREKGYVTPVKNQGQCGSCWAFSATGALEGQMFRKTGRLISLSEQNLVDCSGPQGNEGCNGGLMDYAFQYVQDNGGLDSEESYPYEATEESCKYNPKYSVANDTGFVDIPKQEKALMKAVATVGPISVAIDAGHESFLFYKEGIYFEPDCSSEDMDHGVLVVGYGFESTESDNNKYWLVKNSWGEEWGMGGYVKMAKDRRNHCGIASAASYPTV
clostripain, sequence (P09870 191-526): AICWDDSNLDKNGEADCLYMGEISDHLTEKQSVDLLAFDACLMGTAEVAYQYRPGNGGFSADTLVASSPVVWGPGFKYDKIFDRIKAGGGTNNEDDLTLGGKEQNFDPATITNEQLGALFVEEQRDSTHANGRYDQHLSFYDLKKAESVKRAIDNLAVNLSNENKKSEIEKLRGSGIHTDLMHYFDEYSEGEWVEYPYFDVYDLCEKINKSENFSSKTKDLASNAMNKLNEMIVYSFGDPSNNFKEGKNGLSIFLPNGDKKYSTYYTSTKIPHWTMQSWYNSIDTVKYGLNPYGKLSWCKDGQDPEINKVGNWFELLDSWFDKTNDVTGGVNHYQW
clostripain, sequence (P09870 51-181): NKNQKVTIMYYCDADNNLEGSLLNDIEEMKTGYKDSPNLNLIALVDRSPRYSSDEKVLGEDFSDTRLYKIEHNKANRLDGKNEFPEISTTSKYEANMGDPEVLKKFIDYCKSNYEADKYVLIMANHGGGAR

**Q.** Which “effect on activity of RVV” value [1] does the source give for Z-Phe-Lys-CH2 -S^+ (CH3)2 bromide [S2] here?
**A.** Neither S1 nor S2 affected the activity of RVV

**Q.** What about the “enhancement of TF activity (negative inhibition)” value [2] of the same molecule?
**A.** 8%

**Q.** And the “percent inhibition of CP” value (cancer procoagulant (CP) [3]; 10 μM inhibitor)?
**A.** no inhibition

**Q.** And the “percent inhibition of CP” value (cancer procoagulant (CP) [3]; 100 μM inhibitor)?
**A.** 33%

**Q.** What about the “percent inhibition of CP” value (cancer procoagulant (CP) [3]; 200 μM inhibitor) of the same molecule?
**A.** 54%

**Q.** What about the “percent inhibition of CP” value (cancer procoagulant (CP) [3]; 400 μM inhibitor) of the same molecule?
**A.** 72%

**Q.** What about the “percent inhibition of papain” value (papain; 10 μM inhibitor) of the same molecule?
**A.** 20%

**Q.** What about the “percent inhibition of papain” value (papain; 100 μM inhibitor) of the same molecule?
**A.** almost the same effect

**Q.** And the “percent inhibition of papain” value (papain; 200 μM inhibitor)?
**A.** almost the same effect

**Q.** Which “rate of inactivation of cathepsin L relative to cathepsin B” value (cathepsin L [4]) does the source give for `CC(C)(C)Oc1ccc(C[C@H](NC(=O)[C@H](Cc2ccccc2)NC(=O)OCc2ccccc2)C(=O)C=[N+]=[N-])cc1` [Z-Phe-Tyr(O-t-Bu) diazomethyl ketone] (Cbz-Phe-Tyr(tBu)-CHN2) here?
**A.** 2.5×10^4

**Q.** With `CC(NC(=O)C(C)NC(=O)OCc1ccccc1)C(=O)C=[N+]=[N-]` (stereo not shown) [D6, Z-Ala-Ala diazomethyl ketone] as the molecule, how does the “effect on the coagulation controls and the assay plasma” value [5] read?
**A.** essentially the same results

**Q.** What about the “percent inhibition of CP” value (cancer procoagulant (CP) [3]; 100 μM inhibitor) of the same molecule?
**A.** 92%

**Q.** What about the “percent inhibition of papain” value (papain; 100 μM inhibitor) of the same molecule?
**A.** 31%

**Q.** With `NC(=O)CI` [iodacetamide, iodoacetamide] as the molecule, how does the “inhibition of procoagulant activity of purified CP” value (cancer procoagulant (CP) [6]) read?
**A.** all the procoagulant activity was inhibited

**Q.** Which results are given for `[N-]=[N+]=CC(=O)CNC(=O)C1CCCN1C(=O)OCc1ccccc1` (stereo not shown) [D3, Z-Pro-Gly diazomethyl ketone] (Cbz-[ξP]-Gly-CHN2)?
**A.** percent inhibition of RVV (negative = slight activation) [1]: -10% to -13%; inhibition of TF [2]: no significant inhibition; percent inhibition of papain (papain; 100 μM inhibitor): 15%; percent inhibition of papain (papain; 200 μM inhibitor): 88%

**Q.** With HgCl2 [Hg^++] as the molecule, how does the “inhibition of procoagulant activity of purified CP” value (cancer procoagulant (CP) [6]; 1 mM iodoacetamide in water, 0.1 mM HgCl2 in water) read?
**A.** all the procoagulant activity was inhibited

**Q.** Which results are given for `CC(C)C(NC(=O)CNC(=O)CNC(=O)OCc1ccccc1)C(=O)C=[N+]=[N-]` (stereo not drawn) [D4, Z-Gly-Gly-Val diazomethyl ketone] (Cbz-Gly-Gly-[ξV]-CHN2)?
**A.** effect on the coagulation controls and the assay plasma [5]: essentially the same results; percent inhibition of CP (cancer procoagulant (CP) [3]; 100 μM inhibitor): about 48%; percent inhibition of papain (papain; 100 μM inhibitor): 2%

**Q.** With `C[C@H](NC(=O)[C@H](Cc1ccccc1)NC(=O)OCc1ccccc1)C(=O)C=[N+]=[N-]` [D1, Z-Phe-Ala diazomethyl ketone] as the molecule, how does the “percent inhibition of RVV (negative = slight activation)” value [1] read?
**A.** -10% to -13%

**Q.** What about the “inhibition of protein synthesis” value (isolated rat hepatocytes) of the same molecule?
**A.** 21%

**Q.** What about the “affinity for cathepsin L relative to cathepsin B” value (cathepsin L [7]) of the same molecule?
**A.** about 2000 fold

**Q.** And the reactivity toward clostripain (clostripain)?
**A.** absolutely inert

**Q.** And the “inhibition of TF” value [2]?
**A.** no significant inhibition

**Q.** And the “percent inhibition of CP” value (cancer procoagulant (CP) [3]; 100 μM inhibitor)?
**A.** 68%

**Q.** What about the “inhibition of CP by D1 relative to S1 (times greater)” value (cancer procoagulant (CP) [3]; same concentration (100 μM), same peptide) of the same molecule?
**A.** ~3 times

**Q.** And the “percent inhibition of papain” value (papain; 100 μM inhibitor)?
**A.** 85%

**Q.** And the “percent inhibition of papain” value (papain; 200 μM inhibitor)?
**A.** 97%

**Q.** What does the source list for Z-Phe-Ala-CH2 -S^+ (CH3)2 bromide [S1]?
**A.** effect on activity of RVV [1]: Neither S1 nor S2 affected the activity of RVV; enhancement of TF activity (negative inhibition) [2]: 5%; percent inhibition of CP (cancer procoagulant (CP) [3]; 10 μM inhibitor): no inhibition; percent inhibition of CP (cancer procoagulant (CP) [3]; 100 μM inhibitor): 26%; percent inhibition of CP (cancer procoagulant (CP) [3]; 200 μM inhibitor): 51%; percent inhibition of CP (cancer procoagulant (CP) [3]; 400 μM inhibitor): 62%; percent inhibition of papain (papain; 10 μM inhibitor): 55%; percent inhibition of papain (papain; 100 μM inhibitor): completely inhibited; percent inhibition of papain (papain; 200 μM inhibitor): completely inhibited

**Q.** For `OCCN(CCO)c1nc(N2CCCCC2)c2nc(N(CCO)CCO)ncc2n1` [RA-233, mopidamol], which survival [8] is on record?
**A.** statistically significant prolongation of survival

**Q.** Which “inhibition of cathepsin B” value (cathepsin B) does the source give for `[N-]=[N+]=CC(=O)C(CCCCN)NC(=O)OCc1ccccc1` (stereo not shown) [Z-Lys diazomethyl ketone] here?
**A.** powerful inhibitor

**Q.** Which survival [9] does the source give for `CC(=O)CC(c1ccccc1)c1c(O)c2ccccc2oc1=O` (stereo not shown) [Warfarin] here?
**A.** significant improvement

**Q.** What about the “time to first evidence disease progression” value [9] of the same molecule?
**A.** significant prolongation

**Q.** Which results are given for `CC(NC(=O)OCc1ccccc1)C(=O)NC(C)C(=O)N1CCCC1C(=O)C=[N+]=[N-]` (stereo not drawn) [D5, Z-Ala-Ala-Pro diazomethyl ketone] (Cbz-Ala-Ala-Pro-CHN2; configuration not given here)?
**A.** effect on the coagulation controls and the assay plasma [5]: essentially the same results; percent inhibition of CP (cancer procoagulant (CP) [3]; 100 μM inhibitor): ~62%; percent inhibition of papain (papain; 100 μM inhibitor): 2%

**Q.** Which “percent inhibition of RVV (negative = slight activation)” value [1] does the source give for `[N-]=[N+]=CC(=O)CNC(=O)C(Cc1ccccc1)NC(=O)OCc1ccccc1` (stereo not shown) [D2, Z-Phe-Gly diazomethyl ketone] (Cbz-[ξF]-Gly-CHN2) here?
**A.** -10% to -13%

**Q.** What about the “inhibition of TF” value [2] of the same molecule?
**A.** no significant inhibition

**Q.** And the “percent inhibition of CP” value (cancer procoagulant (CP) [3]; 100 μM inhibitor)?
**A.** 97%

**Q.** What about the “percent inhibition of papain” value (papain; 100 μM inhibitor) of the same molecule?
**A.** 88%

**Q.** And the “percent inhibition of papain” value (papain; 200 μM inhibitor)?
**A.** 97%
